Data reported in ChEMBL document CHEMBL1140617, “Quantitative structure-activity relationship of sesquiterpene lactones with cytotoxic activity” (2007).
≈ marks a conversion by molar mass, not a printed value.

Test system: KB
Assay: Cytotoxicity against human KB cells
Assay type: functional
Conditions: for EC50: Homo sapiens, KB, read-out: ED50 (the source's name)

Compound	pED50	EC50	ED50	ED100
C=C1C(=O)O[C@@H]2[C@H]1CC[C@H](C)[C@@H]1C[C@@H](O)C(=O)[C@@]21C	5	2.65 µg/mL (≈ 10 µM)		
C=C1C(=O)O[C@H]2[C@H]1[C@H](OC(=O)/C(C)=C\C)C[C@@]1(CO1)[C@@H]1[C@H](O)[C@H]3O[C@@]3(C)[C@]21O	5.18	2.6 µg/mL (≈ 6.63 µM)		
C=C1C(=O)O[C@H]2C[C@@H](C)[C@@H]3C=CC(=O)[C@@]3(C)C[C@H]12 (single isomer, unassigned) [AROMATICIN]	5.86	0.34 µg/mL (≈ 1.38 µM)		
C=C1C(=O)O[C@H]2[C@H]1[C@H](OC(=O)/C(C)=C\C)C[C@](O)(CCl)[C@@H]1[C@H](O)[C@H]3O[C@@]3(C)[C@]21O (single isomer, unassigned) [EUPACHLOROXIN]	5.08	3.6 µg/mL (≈ 8.39 µM)		
C=C1C(=O)O[C@@H]2/C=C(/C)[C@@H](OC(C)=O)CC(O)/C(C)=C\[C@@H](OC(=O)C3(C)O[C@@H]3C)[C@@H]12 (single isomer, unassigned) [EUPACUNOXIN]	5.3	2.1 µg/mL (≈ 4.99 µM)		
C=C1C(=O)O[C@H]2C[C@@H](C)[C@@H]3C=CC(=O)[C@@]3(C)[C@H](O)[C@H]12 (single isomer, unassigned) [MEXICANIN I]	5.9	0.33 µg/mL (≈ 1.26 µM)		
C=C[C@@]12COC(=O)C(=C)[C@@H]1[C@H]1OC(=O)C(=C)[C@@H]1[C@@H](OC(=O)C(=C)C)C2 (single isomer, unassigned) [VERNOLEPIN METHACRYLATE]	5.91	0.42 µg/mL (≈ 1.22 µM)		
C=C1C(=O)O[C@@H]2C[C@@H](C)[C@@H]3C=CC(=O)[C@@]3(C)[C@@H](O)[C@H]12 (stereo in doubt) [HELENALIN]	6.12	0.2 µg/mL (≈ 0.762 µM)		
C=C1C(=O)O[C@H]2[C@H]1[C@H](OC(=O)/C(C)=C\C)CC(=C)[C@@H]1[C@H](O)[C@H]3O[C@@]3(C)[C@@]12O (stereo in doubt; 20) [EUPATUNDIN]	6.46		0.47 µg/mL (≈ 1.25 µM)	
C=C1C(=O)O[C@H]2[C@H]1[C@H](OC(=O)/C(C)=C\C)CC(=C)[C@@H]1[C@H](O)[C@H]3O[C@@]3(C)[C@@]12O (stereo in doubt; 28) [EUPATUNDIN]	5.98	0.47 µg/mL (≈ 1.25 µM)		
C=C1C(=O)O[C@@H]2[C@H]1CC[C@H](C)[C@@H]1C=CC(=O)[C@@]21C [AMBROSIN]	5.74	0.45 µg/mL (≈ 1.83 µM)		
C=C1C(=O)O[C@H]2C/C(C)=C/C[C@@H](OC(C)=O)/C(C)=C/[C@@H](OC(C)=O)[C@H]12 [CHAMISSONIN DIACETATE]	5.68	2.13 µg/mL		
C=C1C(=O)O[C@@H]2[C@H]1CC[C@H](C)[C@]1(O)CCC(=O)[C@@]21C [CORONOPILIN]	5.26	1.45 µg/mL (≈ 5.49 µM)		
C=C1C(=O)O[C@@H]2/C=C(\C)CCC=C(C)CC[C@@H]12 [COSTUNOLIDE]	5.61	0.57 µg/mL (≈ 2.45 µM)		
C=C1C(=O)O[C@@H]2[C@H]1[C@@H](O)C[C@H](C)[C@@H]1CCC(=O)[C@@]21C [DESACETYLCONFERTIFLORIN]	5.06	2.3 µg/mL (≈ 8.7 µM)		
C=C1C(=O)O[C@H]2[C@H]1[C@@H](OC(=O)C=C(C)C)CC1=C[C@@H](C[C@@]3(C)O[C@H]23)OC1=O [ELEPHANTIN]	5.49	1.16 µg/mL (≈ 3.1 µM)		
C=C1C(=O)O[C@H]2CC3=C[C@@H](C[C@]4(C)O[C@@H]4[C@@H](O)[C@H]12)OC3=O [ELEPHANTOL]	3.91	36 µg/mL (≈ 123 µM)		
C=C(C)C(=O)O[C@H]1CC2=C[C@@H](C[C@@]3(C)O[C@@H]3[C@H]3OC(=O)C(=C)[C@@H]31)OC2=O [ELEPHANTOPIN]	5.6	0.94 µg/mL (≈ 2.61 µM)		
C=C1C(=O)O[C@H]2[C@H]1[C@H](OC(=O)/C(C)=C\C)C[C@](O)(CCl)[C@@H]1[C@H](OC(C)=O)C=C(C)[C@]21O [EUPACHLORIN ACETATE]	5.21	0.16 µg/mL		

Compound	pED50	EC50	ED50	ED100
C=C1C(=O)O[C@H]2[C@H]1[C@H](OC(=O)/C(C)=C\C)C[C@](O)(CCl)[C@@H]1[C@H](O)C=C(C)[C@]21O [EUPACHLORIN]	6.29	0.21 µg/mL (≈ 0.509 µM)		
C=C1C(=O)O[C@@H]2/C=C(/CO)[C@@H](OC(C)=O)C[C@H](O)/C(C)=C\[C@@H](OC(=O)C(C)=CC)[C@@H]12 [EUPACUNOLIN]	5.06	3.7 µg/mL (≈ 8.8 µM)		
C=C1C(=O)O[C@H]2[C@H]1[C@H](OC(=O)/C(C)=C\C)C[C@]1(CO1)[C@@H]1[C@H](OC(C)=O)C=C(C)[C@]21O [EUPAROTIN ACETATE]	6.28	0.22 µg/mL		
C=C1C(=O)O[C@H]2[C@H]1[C@H](OC(=O)/C(C)=C/C)C[C@]1(CO1)[C@@H]1[C@H](O)C=C(C)[C@]21O [EUPAROTIN]	6.25			0.21 µg/mL
C=C1C(=O)O[C@@H]2/C=C(\C)[C@@H](OC(C)=O)C/C=C(/C)C(O)[C@@H](OC(=O)/C(C)=C\C)[C@@H]12 (some centres undefined) [EUPATOCUNIN]	6.57	0.11 µg/mL (≈ 0.272 µM)		
C=C1C(=O)O[C@@H]2/C=C(\C)[C@@H](OC(C)=O)CC=C(C)C(OC(=O)[C@]3(C)O[C@@H]3C)C(O)[C@@H]12 (some centres undefined) [EUPATOCUNOXIN]	5.39	1.7 µg/mL (≈ 4.04 µM)		
C=C1C(=O)O[C@H]2[C@H]1[C@H](OC(=O)/C(C)=C\C)C[C@]1(CO1)[C@@H]1[C@H](O)[C@H]3O[C@@]3(C)[C@]21O [EUPATOROXIN]	5.15	2.8 µg/mL (≈ 7.14 µM)		
C=C1C(=O)O[C@H]2C=C(C)[C@H]3[C@@H](OC(C)=O)C[C@@](C)(O)[C@@H]3C[C@H]12 [GAILLARDIN]	5.12	2.3 µg/mL (≈ 7.51 µM)		
C=C1C(=O)O[C@@H]2/C=C(/C)[C@@]3(O)C=C[C@@](C)(C[C@@H](OC(=O)/C(=C\C)COC(C)=O)[C@@H]12)O3 [LIATRIN]	5.41	1.62 µg/mL (≈ 3.87 µM)		
C=C1C(=O)O[C@@H]2[C@H]1CC[C@H](C)[C@]1(O)C=CC(=O)[C@@]21C [PARTHENIN]	5.89	0.34 µg/mL (≈ 1.3 µM)		
C=C1C(=O)O[C@@H]2/C=C(\C)C[C@H](O)C=C(C)CC[C@@H]12 [TAMAULIPIN A]	5.29	1.26 µg/mL (≈ 5.07 µM)		
C=C1C(=O)O[C@@H]2/C=C(\C)[C@H](O)CC=C(C)CC[C@@H]12 [TAMAULIPIN B]	4.98	2.6 µg/mL (≈ 10.5 µM)		
C=C[C@@]12COC(=O)C(=C)[C@@H]1[C@H]1OC(=O)C(=C)[C@@H]1[C@@H](OC(=O)C(=C)CO)C2 [VERNODALIN]	5.3	1.8 µg/mL (≈ 4.99 µM)		
C=C[C@@]12COC(=O)C(=C)[C@@H]1[C@H]1OC(=O)C(=C)[C@@H]1[C@@H](OC(C)=O)C2 [VERNOLEPIN ACETATE]	5.07	2.7 µg/mL		
C=C[C@@]12COC(=O)C(=C)[C@@H]1[C@H]1OC(=O)C(=C)[C@@H]1[C@@H](O)C2 [VERNOLEPIN]	5.19	1.8 µg/mL (≈ 6.51 µM)		
C=C[C@]12COC(=O)C(=C)[C@H]1[C@H](OC(C)=O)[C@H]1C(=C)C(=O)O[C@@H]1C2 [VERNOMENIN ACETATE]	4.58	8 µg/mL		
C=C[C@@]12COC(=O)C(=C)[C@@H]1[C@@H](O)[C@@H]1C(=C)C(=O)O[C@H]1C2 [VERNOMENIN]	3.9	35 µg/mL (≈ 127 µM)		
C=C1C(=O)O[C@@H]2/C=C3\CCC4OC4(C[C@H](OC(=O)C(C)C)[C@@H]12)C(O)OC3 (some centres undefined) [VERNOMYGDIN]	5.39	1.5 µg/mL (≈ 4.12 µM)		
